# Assay results as given in the supplement of paper PMC8617591.
# Legend:
# [1] = system: Mycobacterium tuberculosis Erdman (autoluminescent); assay: total FIC50 (Loewe) at 50% inhibition, three-drug combination (log2); higher = more antagonistic
# Protocol: (§1)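 DiaMOND equipotent three-drug combination dose responses (10 doses, 1.5- or 2-fold spacing, centred on IC90) against autoluminescent M. tuberculosis Erdman in 8 in vitro models. Read-out is OD600, or luminescence for the intracellular and dormancy models, normalised to untreated wells. Hill-fit Einf, AUC25 and GRinf are potency metrics; FIC50 and FIC90 are total Loewe fractional inhibitory concentrations as log2 (negative = synergy).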
# [2] = system: Mycobacterium tuberculosis Erdman (autoluminescent); assay: total FIC90 (Loewe) at 90% inhibition, three-drug combination (log2); higher = more antagonistic
# Protocol: as §1
# [3] = system: Mycobacterium tuberculosis Erdman (autoluminescent); assay: Einf, fitted maximum growth inhibition of three-drug combination (fraction); higher = stronger maximal inhibition
# Protocol: as §1
# [4] = system: Mycobacterium tuberculosis Erdman (autoluminescent); assay: AUC25, normalised area under dose response up to IC25 (three-drug combination) (fraction (0-1)); higher = more potent at low dose
# Protocol: as §1
# [5] = system: Mycobacterium tuberculosis Erdman (autoluminescent); assay: GRinf, maximum normalised growth rate inhibition (three-drug combination) (unitless (-1 to 1)); higher = less effect (negative = killing)
# Protocol: as §1
# [6] = in vitro model: acidic pH 5.7, time point: constant (~7 days, model-specific)
# [7] = in vitro model: acidic pH 5.7, time point: terminal (~4-5 doublings, model-specific)
# [8] = in vitro model: butyrate, time point: constant (~7 days, model-specific)
# [9] = in vitro model: butyrate, time point: terminal (~4-5 doublings, model-specific)
# [10] = in vitro model: cholesterol 0.05 mM, time point: constant (~7 days, model-specific)
# [11] = in vitro model: cholesterol 0.05 mM, time point: terminal (~4-5 doublings, model-specific)
# [12] = in vitro model: cholesterol-high 0.2 mM, time point: constant (~7 days, model-specific)
# [13] = in vitro model: cholesterol-high 0.2 mM, time point: terminal (~4-5 doublings, model-specific)
# [14] = in vitro model: dormancy (butyrate + nitrate, low O2), time point: constant (~7 days, model-specific)
# [15] = in vitro model: dormancy (butyrate + nitrate, low O2), time point: terminal (~4-5 doublings, model-specific)
# [16] = in vitro model: standard 7H9 glycerol, time point: constant = terminal
# [17] = in vitro model: valerate, time point: constant (~7 days, model-specific)
# [18] = in vitro model: valerate, time point: terminal (~4-5 doublings, model-specific)
# [19] = in vitro model: intracellular J774, time point: constant = terminal
compound,measurement,setting,value
NNC(=O)c1ccncc1 [isoniazid] + COc1c(N2C[C@@H]3CCCN[C@@H]3C2)c(F)cc2c(=O)c(C(=O)O)cn(C3CC3)c12 [moxifloxacin] + O=[N+]([O-])c1cn2c(n1)OC[C@@H](OCc1ccc(OC(F)(F)F)cc1)C2 [pretomanid],total FIC50,[1]; [6],4.5
same,total FIC50,[1]; [7],4.46
same,total FIC50,[1]; [8],2.83
same,total FIC50,[1]; [9],2.53
same,total FIC50,[1]; [10],1.75
same,total FIC50,[1]; [11],8.24
same,total FIC50,[1]; [12],0.366
same,total FIC50,[1]; [13],0.407
same,total FIC50,[1]; [14],2.42
same,total FIC50,[1]; [15],2.34
same,total FIC50,[1]; [16],1.14
same,total FIC50,[1]; [17],2.35
same,total FIC50,[1]; [18],2.43
same,total FIC90,[2]; [7],4.49
same,total FIC90,[2]; [8],2.02
same,total FIC90,[2]; [9],2.38
same,total FIC90,[2]; [11],1.68
same,total FIC90,[2]; [13],0.342
same,total FIC90,[2]; [14],2.29
same,total FIC90,[2]; [15],2.6
same,total FIC90,[2]; [19],0.579
same,total FIC90,[2]; [16],0.349
same,total FIC90,[2]; [18],2.4
same,Einf,[3]; [6],0.752
same,Einf,[3]; [7],0.959
same,Einf,[3]; [8],0.929
same,Einf,[3]; [9],0.974
same,Einf,[3]; [10],0.746
same,Einf,[3]; [11],0.957
same,Einf,[3]; [12],0.892
same,Einf,[3]; [13],0.977
same,Einf,[3]; [14],0.873
same,Einf,[3]; [15],0.986
same,Einf,[3]; [19],0.994
same,Einf,[3]; [16],0.979
same,Einf,[3]; [17],0.898
same,Einf,[3]; [18],0.948
same,AUC25,[4]; [6],0.105
same,AUC25,[4]; [7],0.0907
same,AUC25,[4]; [8],0.0536
same,AUC25,[4]; [9],0.0441
same,AUC25,[4]; [10],0.105
same,AUC25,[4]; [11],0.0994
same,AUC25,[4]; [12],0.0779
same,AUC25,[4]; [13],0.0578
same,AUC25,[4]; [14],0.0796
same,AUC25,[4]; [15],0.0682
same,AUC25,[4]; [16],0.0818
same,AUC25,[4]; [17],0.107
same,AUC25,[4]; [18],0.071
same,GRinf,[5]; [6],-0.684
same,GRinf,[5]; [7],-0.532
same,GRinf,[5]; [8],-0.0807
same,GRinf,[5]; [9],-0.0869
same,GRinf,[5]; [10],-0.26
same,GRinf,[5]; [11],-0.35
same,GRinf,[5]; [12],-0.144
same,GRinf,[5]; [13],-0.646
same,GRinf,[5]; [14],0.251
same,GRinf,[5]; [15],-0.111
same,GRinf,[5]; [19],-0.481
same,GRinf,[5]; [16],-0.202
same,GRinf,[5]; [17],-0.0314
same,GRinf,[5]; [18],-0.0412
NNC(=O)c1ccncc1 [isoniazid] + NC(=O)c1cnccn1 [pyrazinamide] + CO[C@H]1/C=C/O[C@@]2(C)Oc3c(C)c(O)c4c(O)c(c(/C=N/N5CCN(C6CCCC6)CC5)c(O)c4c3C2=O)NC(=O)/C(C)=C\C=C\[C@H](C)[C@H](O)[C@@H](C)[C@@H](O)[C@@H](C)[C@H](OC(C)=O)[C@@H]1C [rifapentine],total FIC50,[1]; [6],-3.55
same,total FIC50,[1]; [7],-2.67
same,total FIC50,[1]; [8],-1.95
same,total FIC50,[1]; [9],-1.85
same,total FIC50,[1]; [11],-0.19
same,total FIC50,[1]; [12],0.738
same,total FIC50,[1]; [13],1.17
same,total FIC50,[1]; [14],-2.31
same,total FIC50,[1]; [15],-2.22
same,total FIC50,[1]; [16],-5.95
same,total FIC50,[1]; [17],-1.89
same,total FIC50,[1]; [18],-1.1
same,total FIC90,[2]; [7],-3.81
same,total FIC90,[2]; [8],0.6
same,total FIC90,[2]; [9],-1.91
same,total FIC90,[2]; [13],1.11
same,total FIC90,[2]; [14],-2.4
same,total FIC90,[2]; [15],-2.43
same,total FIC90,[2]; [19],0.243
same,total FIC90,[2]; [18],-0.889
same,Einf,[3]; [6],0.925
same,Einf,[3]; [7],0.985
same,Einf,[3]; [8],0.924
same,Einf,[3]; [9],0.969
same,Einf,[3]; [10],0.706
same,Einf,[3]; [11],0.893
same,Einf,[3]; [12],0.905
same,Einf,[3]; [13],0.997
same,Einf,[3]; [14],0.883
same,Einf,[3]; [15],0.973
same,Einf,[3]; [19],0.987
same,Einf,[3]; [16],0.915
same,Einf,[3]; [17],0.878
same,Einf,[3]; [18],0.949
same,AUC25,[4]; [6],0.096
same,AUC25,[4]; [7],0.0425
same,AUC25,[4]; [8],0.0899
same,AUC25,[4]; [9],0.0698
same,AUC25,[4]; [10],0.108
same,AUC25,[4]; [11],0.0828
same,AUC25,[4]; [12],0.0744
same,AUC25,[4]; [13],0.0802
same,AUC25,[4]; [14],0.0611
same,AUC25,[4]; [15],0.0351
same,AUC25,[4]; [16],0.066
same,AUC25,[4]; [17],0.118
same,AUC25,[4]; [18],0.0446
same,GRinf,[5]; [6],-0.35
same,GRinf,[5]; [7],-0.234
same,GRinf,[5]; [8],-0.00381
same,GRinf,[5]; [9],0.0193
same,GRinf,[5]; [10],-0.183
same,GRinf,[5]; [11],-0.166
same,GRinf,[5]; [12],-0.222
same,GRinf,[5]; [13],-0.658
same,GRinf,[5]; [14],0.232
same,GRinf,[5]; [15],-0.0606
same,GRinf,[5]; [19],-0.309
same,GRinf,[5]; [16],0.0607
same,GRinf,[5]; [17],-0.183
same,GRinf,[5]; [18],-0.0194
NNC(=O)c1ccncc1 [isoniazid] + NC(=O)c1cnccn1 [pyrazinamide] + CO[C@H]1/C=C/O[C@@]2(C)Oc3c(C)c(O)c4c(O)c(c(/C=N/N5CCN(C)CC5)c(O)c4c3C2=O)NC(=O)/C(C)=C\C=C\[C@H](C)[C@H](O)[C@@H](C)[C@@H](O)[C@@H](C)[C@H](OC(C)=O)[C@@H]1C [rifampicin],total FIC50,[1]; [6],-1.79
same,total FIC50,[1]; [7],-1.2
same,total FIC50,[1]; [8],-2.04
same,total FIC50,[1]; [9],-2.09
same,total FIC50,[1]; [11],0.166
same,total FIC50,[1]; [12],0.702
same,total FIC50,[1]; [13],1.16
same,total FIC50,[1]; [14],-2.66
same,total FIC50,[1]; [15],-3.09
same,total FIC50,[1]; [16],-5.81
same,total FIC50,[1]; [17],-2.11
same,total FIC50,[1]; [18],-1.04
same,total FIC90,[2]; [7],-1.75
same,total FIC90,[2]; [8],0.665
same,total FIC90,[2]; [9],-2.12
same,total FIC90,[2]; [13],0.74
same,total FIC90,[2]; [14],-3.39
same,total FIC90,[2]; [15],-2.85
same,total FIC90,[2]; [19],0.327
same,total FIC90,[2]; [18],-1.36
same,Einf,[3]; [6],0.864
same,Einf,[3]; [7],0.988
same,Einf,[3]; [8],0.921
same,Einf,[3]; [9],0.967
same,Einf,[3]; [10],0.633
same,Einf,[3]; [11],0.865
same,Einf,[3]; [12],0.91
same,Einf,[3]; [13],1
same,Einf,[3]; [14],0.891
same,Einf,[3]; [15],0.979
same,Einf,[3]; [19],0.976
same,Einf,[3]; [16],0.917
same,Einf,[3]; [17],0.86
same,Einf,[3]; [18],0.928
same,AUC25,[4]; [6],0.0814
same,AUC25,[4]; [7],0.0574
same,AUC25,[4]; [8],0.103
same,AUC25,[4]; [9],0.0827
same,AUC25,[4]; [10],0.088
same,AUC25,[4]; [11],0.0858
same,AUC25,[4]; [12],0.0657
same,AUC25,[4]; [13],0.0664
same,AUC25,[4]; [14],0.0642
same,AUC25,[4]; [15],0.0565
same,AUC25,[4]; [16],0.0763
same,AUC25,[4]; [17],0.0587
same,AUC25,[4]; [18],0.0331
same,GRinf,[5]; [6],-0.12
same,GRinf,[5]; [7],-0.193
same,GRinf,[5]; [8],0.00703
same,GRinf,[5]; [9],0.0033
same,GRinf,[5]; [10],-0.0371
same,GRinf,[5]; [11],-0.1
same,GRinf,[5]; [12],-0.258
same,GRinf,[5]; [13],-0.795
same,GRinf,[5]; [14],0.224
same,GRinf,[5]; [15],-0.0973
same,GRinf,[5]; [19],-0.255
same,GRinf,[5]; [16],0.0491
same,GRinf,[5]; [17],0.0565
same,GRinf,[5]; [18],0.0571
